# Like-named read-outs stand apart in the source and are kept apart here.
# Legend:
# maximal electroshock [1] = experiment: Maximal electroshock (MES), anticonvulsive action, mouse i.p.; format: in vivo
# Description: (§1) ^3) Mouse i.p.: MES = maximal electroshock, PTZ = s.c. pentetrazole
# (§2) ^5) In % of the protected animals; n.t. = not tested
# s.c. pentetrazole = s.c. pentetrazole (PTZ), anticonvulsive action, mouse i.p.; format: in vivo; details: ip, read-out: Action, PTZ (protected animals)
# Description: as §1, §2
# [2] = Octanol/water partition coefficient
# adenosine receptor (A3) = molecular target: T1, adenosine receptor (A3) (Homo sapiens, UniProt P0DMS8); experiment: Binding at the adenosine receptor (A3) and selectivities; details: for Ki: adenosine A3 receptor; for selectivity A3/A1: ratio A3/A1; for selectivity A3/A2: ratio A3/A2
# T1 sequence (P0DMS8 1-318): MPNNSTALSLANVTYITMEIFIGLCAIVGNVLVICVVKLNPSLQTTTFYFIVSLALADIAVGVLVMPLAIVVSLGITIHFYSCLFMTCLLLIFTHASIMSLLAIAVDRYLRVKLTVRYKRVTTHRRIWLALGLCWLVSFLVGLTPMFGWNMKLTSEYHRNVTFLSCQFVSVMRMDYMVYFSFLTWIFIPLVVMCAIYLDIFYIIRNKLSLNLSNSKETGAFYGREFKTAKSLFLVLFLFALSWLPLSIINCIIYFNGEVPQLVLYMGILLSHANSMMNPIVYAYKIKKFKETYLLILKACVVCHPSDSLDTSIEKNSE
# [3] = system: eosinophilic granulocytes; experiment: Inhibition of infiltration of eosinophilic granulocytes into the lungs (BAL, ovalbumin-challenged guinea-pigs, oral); format: in vivo, guinea-pig (Dunkin Hartley Shoe); details: guinea-pig, 100 mg/kg, 2 hours before allergen challenge
# Description: The compounds of the present invention were tested in vivo for antiasthmatic action after oral administration to male guinea-pigs, and the inhibition of the infiltration of the eosinophilic granulocytes into the lungs was determined. Male guinea-pigs (Dunkin Hartley Shoe) weighing 200-250 g were actively sensitized by an s.c. injection of ovalbumin (10 μg+1 mg of aluminum hydroxide) and boosted 2 weeks later. One week after boosting with ovalbumin, the animals were challenged with an aerosol of 0.5% strength ovalbumin solution for 20-30 sec. 24 hours later, a bronchoalveolar lavage (BAL) was carried out in the animals under urethane anaesthesia using 2×5 ml of saline solution. The lavage fluid was collected and centrifuged at 400×g for 10 min and the cell pellets were suspended in 1 ml of saline solution. The eosinophilic granulocytes were counted microscopically in a Neubauer chamber. A Becton Dickinson test kit (No. 5877) for eosinophils was used for staining. The test kit used phloxine B as a selective stain for eosinophils. The eosinophils in the BAL were counted for each animal and the eosinophils were calculated in millions/animal. The test substances were administered orally 2 hours before allergen challenge.
# The percentage inhibition of eosinophilia of the group treated with substance is calculated according to the following formula:
# (A-C)-(B-C)/(A-C)×100=% inhibition […]
# maximal electroshock [4] = experiment: Maximal electroshock, anticonvulsive action, rat p.o.; format: in vivo; details: for ED50: po, maximal electroshock
# Description: Week-blad, Sc. Ed. 14, 132 (1992) and Antiepileptic Drugs, Third Ed., Raven Press, New York 1989.
# (§3) Analogous results were obtained for the orally administered tests.
# in vivo = details: rat, po
# Description: as §3
# [5] = ip, mouse i.p., read-out: Action, MES (protected animals)
# [6] = ip, mouse i.p., 100 mg/kg, read-out: Action, MES (protected animals)
Compound,"responders at 100 mg/kg (s.c. pentetrazole; mouse i.p., 100 mg/kg) [%]",logP [2],responders at 30 mg/kg (maximal electroshock [1]; [5]) [%],Ki (adenosine receptor (A3)) [nM],selectivity A3/A1 (adenosine receptor (A3)),selectivity A3/A2 (adenosine receptor (A3)),responders at 100 mg/kg (maximal electroshock [1]; [6]) [%],other results
"2-benzyl-pyrazolo-[3,4-d]-pyrimidine [reference compound]",,,,,,,,"Log P (octanol/water partition coefficient): 0.40; Action, MES (protected animals) (maximal electroshock [1]; mouse i.p., 100 mg/kg): 100%"
"O=c1[nH]cnc2nn(Cc3ccccc3F)cc12 [Example 1, 2-(2-fluorobenzyl)pyrazolo[3,4-d]pyrimidin-4(5H)-one]",100,0.2,100,3200,0.7,0.01,,
"O=c1[nH]cnc2nn(Cc3c(Cl)cccc3Cl)cc12 [Example 10, 2-(2,6-dichlorobenzyl)pyrazolo[3,4-d]pyrimidin-4(5H)-one]",,1.16,,1600,0.02,0.02,60,
"O=c1[nH]cnc2nn(Cc3ccccc3Br)cc12 [Example 3, 2-(2-bromobenzyl)pyrazolo[3,4-d]pyrimidin-4(5H)-one]",,0.56,,430,0.008,0.005,100,responders at 300 mg/kg (s.c. pentetrazole; mouse i.p.): 80%; % inhibition of infiltration of eosinophilic granulocytes into the lung [3]: 74%
"S=c1[nH]cnc2nn(Cc3ccccc3Cl)cc12 [Example 15, 2-(2-chlorobenzyl)pyrazolo[3,4-d]pyrimidine-4(5H)-thione]",60,1.54,,500,0.007,< 0.001,100,"ED50 (maximal electroshock [4]): 12 mg/kg; anticonvulsive action, in words (maximal electroshock [4]; qualitative): strongly anticonvulsive; TD50 (in vivo): > 460 mg/kg; therapeutic breadth, in words (in vivo): great therapeutic breadth"
"S=c1[nH]cnc2nn(Cc3ccccc3Br)cc12 [Example 16, 2-(2-bromobenzyl)pyrazolo[3,4-d]pyrimidine-4(5H)-thione]",,1.2,,340,0.005,< 0.001,30,
"Cc1ccccc1Cn1cc2c(=O)[nH]cnc2n1 [Example 6, 2-(2-methylbenzyl)pyrazolo[3,4-d]pyrimidin-4(5H)-one]",20,0.75,100,4000,0.01,0.08,,
"FC(F)(F)c1ccccc1Cn1cc2c(=S)[nH]cnc2n1 [Example 18, 2-(2-trifluoromethylbenzyl)pyrazolo[3,4-d]pyrimidine-4(5H)-thione]",80,1.6,,,,,100,
"O=c1[nH]cnc2nn(Cc3c(F)cccc3Cl)cc12 [Example 9, 2-(2-chloro-6-fluorobenzyl)pyrazolo[3,4-d]pyrimidin-4(5H)-one]",,0.93,100,1000,0.002,0.004,,
"O=c1[nH]cnc2nn(Cc3cccc(C(F)(F)F)c3)cc12 [Example 7, 2-(3-trifluoromethylbenzyl)pyrazolo[3,4-d]pyrimidin-4(5H)-one]",60,1,100,,,,,
"COc1ccc(Cn2cc3c(=O)[nH]cnc3n2)cc1 [Example 12, 2-(4-methoxybenzyl)pyrazolo[3,4-d]pyrimidin-4(5H)-one]",,0.62,,9800,0.5,0.01,15,responders at 300 mg/kg (s.c. pentetrazole; mouse i.p.): 40%
"O=c1[nH]cnc2nn(Cc3ccc(Cl)cc3Cl)cc12 [Example 11, 2-(2,4-dichlorobenzyl)pyrazolo[3,4-d]pyrimidin-4(5H)-one]",20,1.68,,710,0.04,0.01,100,
"CCCC(CCC)C(=O)O [Valproate, reference compound]",,,,,,,,"responders at 100 mg/kg (s.c. pentetrazole; Mus musculus): 30%; responders at 100 mg/kg (maximal electroshock [1]; Mus musculus, ip, read-out: Action, MES (protected animals)): 0%"
"S=c1[nH]cnc2nn(Cc3ccccc3I)cc12 [Example 17, 2-(2-iodobenzyl)pyrazolo[3,4-d]pyrimidine-4(5H)-thione]",,1.4,,500,0.008,< 0.001,30,
"O=c1[nH]cnc2nn(Cc3c(F)cccc3F)cc12 [Example 8, 2-(2,6-difluorobenzyl)pyrazolo[3,4-d]pyrimidin-4(5H)-one]",,0.18,100,,,,,responders at 30 mg/kg (s.c. pentetrazole; mouse i.p.): 40%
"Fc1cccc(F)c1Cn1cc2c(=S)[nH]cnc2n1 [Example 19, 2-(2,6-difluorobenzyl)pyrazolo[3,4-d]pyrimidine-4(5H)-thione]",60,1.57,100,,,,,
"O=c1[nH]cnc2nn(Cc3ccccc3Cl)cc12 [Example 2, 2-(2-chlorobenzyl)pyrazolo[3,4-d]pyrimidin-4(5H)-one]",60,1.01,,2000,0.02,0.06,100,ED50 (maximal electroshock [4]): 32 mg/kg; TD50 (in vivo): > 250 mg/kg
"O=c1[nH]cnc2nn(Cc3cc4c(cc3Cl)OCO4)cc12 [Example 13, 2-(2-chloro-4,5-methylenedioxybenzyl)pyrazolo[3,4-d]pyrimidin-4(5H)-one]",,1.21,,8300,0.4,0.02,30,
"O=c1[nH]cnc2nn(Cc3ccccc3C(F)(F)F)cc12 [Example 5, 2-(2-trifluoromethylbenzyl)pyrazolo[3,4-d]pyrimidin-4(5H)-one]",,1.08,100,790,0.002,0.007,,responders at 30 mg/kg (s.c. pentetrazole; mouse i.p.): 20%
"NC(=O)N1c2ccccc2C=Cc2ccccc21 [Carbamazepine, reference compound]",0,,,,,,100,
"O=c1[nH]cnc2nn(Cc3ccccc3I)cc12 [Example 4, 2-(2-iodobenzyl)pyrazolo[3,4-d]pyrimidin-4(5H)-one]",,0.74,,490,0.008,< 0.0005,,"responders at 300 mg/kg (maximal electroshock [1]; ip, mouse i.p., 300 mg/kg, read-out: Action, MES (protected animals)): 100%"

# — patent US6054460A, “Anticonvulsive and antiallergic/antiasthmatic pyrazolo-[3,4-d]pyrimidines, and process for preparing” (Arzneimittelwerk Dresden GmbH, priority 1998, dated 2000)
